Test: Pharmacokinetics after intravenous and oral administration in rats
Type: in vivo
Conditions: iv dosing, 1 mg/kg; for AUC(0-t) / half-life / Vd: rat, plasma; for Vd: read-out: Vss
Protocol: The LC/MS/MS system used in the analysis consists of an Agilent 1200 Series vacuum degasser, binary pump, well-plate autosampler, thermostatted column compartment, the Agilent G6430 Triple Quadrupole Mass Spectrometer with an electrosprayionization (ESI) source. Quantitative analysis was carried out using MRM mode. The parameters for MRM transitions are in the Table A.
An Agilent XDB-C18, 2.1×30 mm, 3.5 μM column was used for the analysis. 5 μL of the samples were injected. Analysis condition: The mobile phase was 0.1% formic acid in water (A) and 0.1% formic acid in methanol (B). The flow rate was 0.4 mL/min. And the gradient of Mobile phase was in the Table B.
Alternatively, an Agilent 6330 series LC/MS/MS spectrometer equipped with G1312A binary pumps, a G1367A autosampler and a G1314C UV detector were used in the analysis. An ESI source was used on the LC/MS/MS spectrometer. The analysis was done in positive ion mode as appropriate and the MRM transition for each analyte was optimized using standard solution. A Capcell MP-C18 100×4.6 mm I.D., […] column (Phenomenex, Torrance, Calif., USA) was used during the analysis. The mobile phase was 5 mM ammonia acetate, 0.1% MeOH in water (A): 5 mM ammonia acetate, 0.1% MeOH in acetonitrile (B) (70:30, v/v). The flow rate was 0.6 mL/min. Column was maintained at ambient temperature. 20 μL of the samples were injected.
The compounds disclosed herein are assessed in pharmacokinetic studies in mice, rats, dogs or monkeys. The compounds are administered as a water solution, 2% HPMC+1% TWEEN®80 in water solution, 5% DMSO+5% solutol in saline, 4% MC suspension or capsule. For the intravenous administration, the animals are generally given at 1 or 2 mg/kg dose. For the oral (p.o.) dosing, mice and rats are generally given 5 or 10 mg/kg dose, and dogs and monkeys are generally given 10 mg/kg dose. The blood samples (0.3 mL) are drawn at 0.25, 0.5, 1.0, 2.0, 3.0, 4.0, 6.0, 8.0, 12 and 24 h time points or 0.083, 0.25, 0.5, 1.0, 2.0, 4.0, 6.0, 8.0 and 24 h time points and centrifuged at 3,000 or 4000 rpm for 2 to 10 min. The plasma solutions are collected, and stored at −20° C. or −70° C. until analyzed by LC/MS/MS as described above.

Row | SMILES | Cl/F | AUC(0-t) | half-life | Vd
1 | Cc1c2ccc(Nc3ncc(Cl)c(NC4CC5CN(C(=O)CC#N)CC5C4)n3)cc2nn1C (centres unmarked) [Ex. 4, 3-(5-((5-chloro-2-((2,3-dimethyl-2H-indazol-6-yl)amino)pyrimidin-4-yl)amino)hexahydrocyclopenta[c]pyrrol-2(1H)-yl)-3-oxopropanenitrile] | 36.2 mL/min/kg | 458 ng·h/mL | 1.36 h | 1.44 L/kg
2 | CC(=O)N1CCC2(CCC(Nc3nc(Nc4ccc5c(C)n(C)nc5c4)ncc3Cl)CC2)CC1 [Ex. 7, 1-(9-((5-chloro-2-((2,3-dimethyl-2H-indazol-6-yl)amino)pyrimidin-4-yl)amino)-3-azaspiro[5.5]undecan-3-yl)ethanone] | 24.5 mL/min/kg | 688 ng·h/mL | 0.85 h | 1.68 L/kg
